According to patent US20240197890A1, “FLAVONE DERIVATIVES AND USES IN TARGETING CK2-MEDIATED DISEASES AND CONDITIONS” (Salk Institute for Biological Studies, priority 2020, published 2024):

Legend:
AKT pS473 = test: Immunofluorescence of AKT pS473 in IL1β-stimulated primary astrocytes; format: cell-based; conditions: IL1-β for 5 h
Procedure: Immunotluorescence. […] After treatment, cells were fixed with 4% paraformaldehyde solution for 20 min at room temperature and washed 3× with DPBS for 10 min each. The cells were permeabilized using 5% horse serum and 10% Triton X in DPBS for 15 min at room temperature and blocked with 5% horse serum in PBS for 30 min at room temperature. Cells were incubated with primary antibodies in blocking buffer either overnight at 4° C. or for 2 hours at room temperature. After incubation, cells were washed 3× with PBS, blocked using 5% horse serum in PBS for 30 min at room temperature, and incubated with Cy3 red-labeled or AF488 green-labeled secondary antibodies diluted in blocking buffer for 1 hour at room temperature. The cells were washed once with PBS for 10 min, then counter-stained with DAPI. The cells were washed 3× with PBS and mounted with glass coverslips and Immu-Mount solution. Images were obtained with the Zeiss fluorescent microscope. […]

[1] = test system: IL6 and IL8 expression in astrocytes; test: Activation assay, ddPCR of cytokine expression in IL1-β-activated astrocytes; format: cell-based, human; conditions: astrocytes and microglia; FIG. 1D, FIG. 2C
Procedure: Activation assays and ddPCR. HCA or H1-derived astrocytes were treated with vehicle (DMSO) or 20 μM compound and stimulated with IL1-B 10 ng/mL for 5 h. Cells were scraped into RNA-Bee and total RNA was purified using the Direct-zol RNA kit (Zymo Research). RNA concentration was measured using Nanodrop and RNA was reverse transcribed into cDNA using the High Capacity cDNA Reverse Transcriptase Kit (Applied Biosystems). Reaction mixes consisting of TaqMan FAM probe (IL6, IL8, CSNK2A1, CSNK2A2), control TaqMan ACTB-VIC probe (TFS 4326315E), ddPCR Supermix for Probes (Bio-Rad 186-3024), and cDNA were formed into oil droplets using the QX200 Droplet Generator. After amplification (Bio-Rad C1000 Touch Thermal Cycler) according to manufacturer's instructions, the plate was read in the QX200 Droplet Reader.

IκB S32 = test: Immunoblot of IκB S32 in IL1-β-stimulated astrocytes; format: cell-based, human; conditions: after 5 hours
Procedure: Western blotting. […] Cells were dissociated with 1:1 Accutase:papain for 3 min at rt, pelleted for 5 min at 800 g, and washed twice with cold DPBS. Pellets were lysed with RIPA buffer (Sigma R0278) supplemented with Halt protease inhibitor cocktail (Thermo Fisher 78445) and clarified by centrifugation (16,000 g, 10 min, 4° C.). Protein concentration was determined by BCA assay (Thermo Fisher). Proteins were denatured in 1×LDS Buffer and 2.5% beta-mercaptoethanol (X) for 10 min at 70° C., separated on Bolt 4-12% Bis-Tris Plus polyacrylamide gels (Thermo Fisher), transferred to PVDF membranes using the iBlot 2 Dry Blotting System, and blocked with 0.1% casein-PBS (Bio-Rad) for 1 h at room temperature. The blots were incubated with primary antibodies overnight at 4° C. in PBS containing 0.1% casein and 0.2% Tween-20. Antibodies used: rabbit anti-CK2a1 (Bethyl #, 1:5000), rabbit anti-CK2a2 (Bethyl #, 1:5000), mouse anti-GAPDH (Fitzgerald #10-1501, 1:20,000), mouse anti-NF-KB (CST #6956S, 1:1000), pNF-KB S529 (TFS #14-9864-82, 1:100), LC3B (CST 2775, 1:1000), ACO2 (CST 6922, 1:1000), rabbit HMGB1 (Novus #NB1002322, 1:1000), mouse anti-IκBα (CST #4814S, 1:1000), mouse anti-IκBa pS32 (SC #8404, 1:500), HA-tag (Bethyl #A190-108A, 1:20000). […] The blots were imaged using the Odyssey CLx imaging system and blots were analyzed on the ImageStudio software (LI-COR). […]

CK2α1 = test: CK2 levels in IL1-β-stimulated human primary astrocytes (Western blot); format: cell-based; conditions: after 5 hours
Procedure: Western blotting. […] Cells were dissociated with 1:1 Accutase:papain for 3 min at rt, pelleted for 5 min at 800 g, and washed twice with cold DPBS. Pellets were lysed with RIPA buffer (Sigma R0278) supplemented with Halt protease inhibitor cocktail (Thermo Fisher 78445) and clarified by centrifugation (16,000 g, 10 min, 4° C.). Protein concentration was determined by BCA assay (Thermo Fisher). Proteins were denatured in 1×LDS Buffer and 2.5% beta-mercaptoethanol (X) for 10 min at 70° C., separated on Bolt 4-12% Bis-Tris Plus polyacrylamide gels (Thermo Fisher), transferred to PVDF membranes using the iBlot 2 Dry Blotting System, and blocked with 0.1% casein-PBS (Bio-Rad) for 1 h at room temperature. The blots were incubated with primary antibodies overnight at 4° C. in PBS containing 0.1% casein and 0.2% Tween-20. Antibodies used: rabbit anti-CK2a1 (Bethyl #, 1:5000), rabbit anti-CK2a2 (Bethyl #, 1:5000), mouse anti-GAPDH (Fitzgerald #10-1501, 1:20,000), mouse anti-NF-KB (CST #6956S, 1:1000), pNF-KB S529 (TFS #14-9864-82, 1:100), LC3B (CST 2775, 1:1000), ACO2 (CST 6922, 1:1000), rabbit HMGB1 (Novus #NB1002322, 1:1000), mouse anti-IκBα (CST #4814S, 1:1000), mouse anti-IκBa pS32 (SC #8404, 1:500), HA-tag (Bethyl #A190-108A, 1:20000). […] The blots were imaged using the Odyssey CLx imaging system and blots were analyzed on the ImageStudio software (LI-COR).

Q: COc1cc(-c2cc(=O)c3c(O)cc(O)cc3o2)ccc1O [CHR, chrysoeriol] was tested. Which “AKT pS473 levels” value (AKT pS473) did it give?
A: reduced

Q: What about the “dose dependence of anti-inflammatory effects” value [1] of the same compound?
A: dose-dependent

Q: And the “IκB S32 levels” value (IκB S32)?
A: decreased

Q: What about the CK2α1 levels (CK2α1) of the same compound?
A: reduced to baseline
